The assay concerns LPS-induced systemic TNFα release. As to the kind of experiment: Inhibition of LPS-induced systemic TNFα release in rats. It is filed as in vivo, rat. The settings on record: for ED50: Rattus norvegicus, male Sprague Dawley rats, by gavage 1 h before i.v. LPS 0.1 mg/kg, plasma TNFα by ELISA 90 min after LPS, from dose-response curves. The method, then: Pharmacology: Synergistic Inhibition of LPS-Induced Systemic TNFα Release in Rats by a Combination of ATORVASTATIN Hemi-Calcium Sesqui-Hydrate and 2-{4-[(4aS,8aR)-4-(3,4-dimethoxyphenyl)-1-oxo-4a,5,8,8a-tetrahydro-1H-phthalazin-2-yl]-piperidin-1-yl}-acetamide (COMPOUND A) Animals:
male Sprague Dawley rats 200-280 g
ATORVASTATIN hemi-calcium sesqui-hydrate (Alexis Pharmaceuticals, San Diego, Calif., USA) and COMPOUND A (ALTANA Pharma, Konstanz, Germany).
Drugs were administered by gavage as a methocel/polyethylenglycol 400 suspension 1 h before intravenous administration of LPS (0.1 mg/kg). Euthanasia was induced 90 minutes later by injecting pentobarbital (48 mg/kg) and heparin (1,000 U/kg). Heparinized blood was obtained by heart puncture. Blood was centrifuged (21,000×g, 4° C., 15 min), and plasma samples were kept frozen at −80° C. until determination of TNFα levels by a commercially available ELISA kit (Quantakine®M, Rat TNFα immunoassay, R&D, MN, USA).
All data are given as mean±SEM. Significances were calculated on the primary TNFα concentrations in comparison with the LPS-challenged control group using ANOVA with subsequent Dunnett's Test provided by GraphPadPrism software package. Differences with p<0.05 were considered significant. Dose-response curves were calculated by non-linear regression analysis within fixed limits of 0 to 100% inhibition. 50% inhibitory dose (ED50) values were derived from dose-response curves.
On the technique in general: In an ELISA, binding on a coated surface is turned into a signal by an enzyme label.

Regarding `CC(C)c1c(C(=O)Nc2ccccc2)c(-c2ccccc2)c(-c2ccc(F)cc2)n1CC[C@@H](O)C[C@H](O)CC(=O)O` [ATORVASTATIN hemi-calcium sesqui-hydrate, (3S,5R)-7-[3-(anilinocarbonyl)-5-(4-fluorophenyl)-2-isopropyl-4-phenyl-1H-pyrrol-1-yl]-3,5-dihydroxyheptanoic acid], the 50% effective dose (ED50) (usually the dose at which the effect has come halfway, by size or by number of responders) came out at 23 mg/kg. For the same compound, the “decrease of LPS-induced TNFα versus placebo” value (ATORVASTATIN hemi-calcium sesqui-hydrate alone 0.5 mg/kg by gavage, rats, no significant effect) is given as 11%.
For `COc1ccc(C2=NN(C3CCN(CC(N)=O)CC3)C(=O)[C@@H]3CC=CC[C@H]23)cc1OC` [COMPOUND A, 2-{4-[(4aS,8aR)-4-(3,4-dimethoxyphenyl)-1-oxo-4a,5,8,8a-tetrahydro-1H-phthalazin-2-yl]-piperidin-1-yl}-acetamide], the ED50 turned out to be 0.14 mg/kg. For the same compound, the “increase of LPS-induced TNFα versus placebo” value (COMPOUND A alone 0.013 mg/kg by gavage, rats, no significant effect) was found to be 1%.
